In patent US20250074888A1, “PYRIDAZINE DERIVATIVES AS MODULATORS OF NLRP3 INFLAMMASOME AND RELATED METHODS” (Neumora Therapeutics, Inc., priority 2021, published 2025):

Experiments:
IL-6 = IL-6 release from LPS-primed, nigericin-treated THP1 macrophages, Hu IL-6 AlphaLISA; format: cell-based; conditions: Homo sapiens, THP-1; PMA-differentiated THP1, LPS 20 ng/ml 3 hrs, compound 1 hr, Nigericin 6.7 uM 3 hrs, supernatant
NLRP3 inflammasome = NLRP3 inflammasome (Homo sapiens, UniProt Q96P20); assay: NLRP3 inflammasome activation in THP1 macrophages (LPS priming, nigericin), IL-1β AlphaLISA; format: cell-based; conditions: PMA-differentiated THP1, LPS 20 ng/ml 3 hrs, compound 1 hr, Nigericin 6.7 uM 3 hrs, supernatant
Sequence of NLRP3 inflammasome (Q96P20 whole entry): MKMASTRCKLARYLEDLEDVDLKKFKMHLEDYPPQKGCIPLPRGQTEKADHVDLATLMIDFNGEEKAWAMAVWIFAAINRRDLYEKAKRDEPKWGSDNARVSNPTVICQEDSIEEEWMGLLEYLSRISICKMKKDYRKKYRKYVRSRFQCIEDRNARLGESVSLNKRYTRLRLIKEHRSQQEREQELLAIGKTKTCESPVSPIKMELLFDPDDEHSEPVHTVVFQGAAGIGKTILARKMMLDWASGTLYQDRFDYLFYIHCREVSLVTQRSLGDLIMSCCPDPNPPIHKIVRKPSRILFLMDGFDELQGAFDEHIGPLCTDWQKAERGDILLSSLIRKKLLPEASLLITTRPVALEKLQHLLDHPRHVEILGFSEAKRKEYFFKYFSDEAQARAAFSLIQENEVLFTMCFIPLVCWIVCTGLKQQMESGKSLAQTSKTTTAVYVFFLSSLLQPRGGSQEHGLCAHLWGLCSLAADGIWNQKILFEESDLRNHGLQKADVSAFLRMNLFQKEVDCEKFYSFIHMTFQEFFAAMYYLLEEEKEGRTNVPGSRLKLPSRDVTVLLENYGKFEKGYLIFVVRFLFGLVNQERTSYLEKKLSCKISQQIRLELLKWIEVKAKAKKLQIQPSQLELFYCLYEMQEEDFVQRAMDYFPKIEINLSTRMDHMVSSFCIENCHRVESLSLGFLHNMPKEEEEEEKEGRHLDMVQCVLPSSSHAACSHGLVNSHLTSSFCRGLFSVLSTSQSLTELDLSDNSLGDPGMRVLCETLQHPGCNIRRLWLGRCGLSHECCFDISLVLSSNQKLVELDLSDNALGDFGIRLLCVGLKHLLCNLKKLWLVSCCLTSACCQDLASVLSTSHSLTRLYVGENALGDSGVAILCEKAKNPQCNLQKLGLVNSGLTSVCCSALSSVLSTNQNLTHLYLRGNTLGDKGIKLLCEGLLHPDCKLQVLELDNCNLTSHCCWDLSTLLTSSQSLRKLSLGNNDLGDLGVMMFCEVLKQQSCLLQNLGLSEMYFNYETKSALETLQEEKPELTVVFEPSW

| IC50 (IL-6) | IC50 (NLRP3 inflammasome) | Compound |
| --- | --- | --- |
| > 10000 nM | ≤ 10 nM | Cc1cc(-c2ccc(Cl)cc2C(F)F)nnc1N[C@@H]1CCCN(C)C1 [compound 175] |
| > 10000 nM | 50 to 100 nM | Cc1cc(N[C@@H]2CCCCN(C)C2)nnc1-c1ccc(C(F)(F)F)cc1 [compound 176] |
| > 10000 nM | 100 to 500 nM | Cc1cc(O[C@@H]2CCCN(C)C2)nnc1-c1ccc(C(F)(F)F)cc1 [compound 177, (R)-4-methyl-6-((1-methylpiperidin-3-yl)oxy)-3-(4-(trifluoromethyl)phenyl)pyridazine] |
| 1000 to 5000 nM | > 1000 nM | Cc1cc(-c2ccc(C(F)(F)F)cc2)nnc1O[C@@H]1CCCN(C)C1 [compound 178] |
| > 10000 nM | > 1000 nM | Cc1cc(O[C@@H]2CCCN(C)C2)nnc1-c1ccc(F)cc1 [compound 179] |
| > 10000 nM | > 1000 nM | Cc1cc(-c2ccc(F)cc2)nnc1O[C@@H]1CCCN(C)C1 [compound 180] |
| ≤ 1000 nM | 500 to 1000 nM | Cc1cc(Cl)ccc1-c1nnc(O[C@@H]2CCCN(C)C2)cc1C [compound 181] |
| > 10000 nM | 50 to 100 nM | Cc1cc(-c2ccc(C(F)(F)F)cc2)nnc1N[C@@H]1CCN(C)C1 [compound 182] |
| > 10000 nM | 100 to 500 nM | Cc1cc(N[C@@H]2CCN(C)C2)nnc1-c1ccc(F)cc1 [compound 183] |
| 5000 to 10000 nM | > 1000 nM | Cc1cc(N(C)[C@@H]2CCN(C)C2)nnc1-c1ccc(F)cc1 [compound 184] |
| 1000 to 5000 nM | > 1000 nM | Cc1cc(N(C)[C@@H]2CCN(C)C2)nnc1-c1ccc(C(F)(F)F)cc1 [compound 185] |
| > 10000 nM | ≤ 10 nM | Cc1cc(N[C@@H]2CCN(C)C2)nnc1-c1ccc(C(F)(F)F)cc1 [compound 186] |
| > 10000 nM | > 1000 nM | Cc1cc(Cl)ccc1-c1nnc(N[C@@H]2CCN(C)C2)cc1C [compound 187] |
| > 10000 nM | > 1000 nM | Cc1cccc(C(F)F)c1-c1ccc(N[C@@H]2CCCN(C)C2)nn1 [compound 189] |
| > 10000 nM | 50 to 100 nM | Cc1cc(N[C@@H]2C[C@@H](F)CN(C(C)C)C2)nnc1-c1ccc(F)cc1 [compound 190] |
| > 10000 nM | 10 to 50 nM | Cc1c(-c2ccc(C(F)(F)F)cc2)nnc(N[C@@H]2CCCN(C)C2)c1O [compound 191] |
| > 10000 nM | ≤ 10 nM | CN1CCC[C@@H](Nc2cc(C(F)(F)F)c(-c3ccc(F)cc3)nn2)C1 [compound 192] |
| 5000 to 10000 nM | ≤ 10 nM | Cc1cc(N(C2CC2)[C@@H]2CCCN(C)C2)nnc1-c1ccc(C(F)(F)F)cc1 [compound 193] |
| > 10000 nM | ≤ 10 nM | CN1CCC[C@@H](Nc2cc(C(F)(F)F)c(-c3ccc(Cl)cc3)nn2)C1 [compound 194] |
| > 10000 nM | 10 to 50 nM | CCN1CCC[C@@H](Nc2cc(C(F)(F)F)c(-c3ccc(F)cc3)nn2)C1 [compound 195] |
| 1000 to 5000 nM | 500 to 1000 nM | CN1CCC[C@@H](Nc2nnc(-c3ccc(Cl)cc3)cc2C(F)(F)F)C1 [compound 196] |
| > 10000 nM | > 1000 nM | CCN1CCC[C@@H](Nc2nnc(-c3ccc(F)cc3)cc2C(F)(F)F)C1 [compound 197] |
| > 10000 nM | 500 to 1000 nM | Cc1cc(C(F)(F)F)ccc1-c1nnc(N[C@@H]2CCCN(C)C2)cc1O [compound 198] |

The next lines start with the compound.

| Compound | IC50 (IL-6) | IC50 (NLRP3 inflammasome) |
| --- | --- | --- |
| CN1CCC[C@@H](Nc2ccc(-c3ccc(F)cc3C(F)(F)F)nn2)C1 [compound 130] | 5000 to 10000 nM | 10 to 50 nM |
| Cc1cc(N[C@H]2CCCN(C(C)C)C2)nnc1-c1ccc(C(F)(F)F)cc1 [compound 131] | > 10000 nM | 500 to 1000 nM |
| Cc1cc(F)ccc1-c1nnc(N[C@@H]2CCCN(C)C2)cc1C [compound 132] | > 10000 nM | 10 to 50 nM |
| Cc1cc(F)ccc1-c1cc(C)c(N[C@@H]2CCCN(C)C2)nn1 [compound 133] | > 10000 nM | 10 to 50 nM |
| Cc1cc(F)ccc1-c1ccc(N[C@@H]2CCCN(C)C2)nn1 [compound 134] | > 10000 nM | 100 to 500 nM |
| Cc1cc(N[C@@H]2CCCN(C(C)C)C2)nnc1-c1ccc(F)cc1 [compound 135] | > 10000 nM | 10 to 50 nM |
| Cc1cc(N[C@H]2CN(C)CC[C@@H]2F)nnc1-c1ccc(C(F)(F)F)cc1 [compound 136] | 5000 to 10000 nM | 50 to 100 nM |
| Cc1cc(N[C@@H]2C[C@H](F)CN(C)C2)nnc1-c1ccc(C(F)(F)F)cc1 [compound 137] | > 10000 nM | 100 to 500 nM |
| Cc1cc(N[C@H]2CN(C)CC[C@@H]2F)nnc1-c1ccc(F)cc1 [compound 138] | > 10000 nM | > 1000 nM |
| Cc1cc(N[C@@H]2C[C@H](F)CN(C)C2)nnc1-c1ccc(F)cc1 [compound 139] | 5000 to 10000 nM | 500 to 1000 nM |
| Cc1cc(N[C@@H]2C[C@@H](F)CN(C)C2)nnc1-c1ccc(F)cc1 [compound 140] | > 10000 nM | > 1000 nM |
| Cc1cc(C(F)(F)F)c(C)cc1-c1ccc(N[C@@H]2CCCN(C)C2)nn1 [compound 141] | > 10000 nM | > 1000 nM |
| Cc1cc(N(C)[C@@H]2CCCN(C)C2)nnc1-c1ccc(C(F)(F)F)cc1 [compound 142, (R)—N,5-dimethyl-N-(1-methylpiperidin-3-yl)-6-(4-(trifluoromethyl)phenyl)pyridazin-3-amine] | 1000 to 5000 nM | 100 to 500 nM |
| CN1CCC[C@@H](Nc2cc(F)c(-c3ccc(C(F)(F)F)cc3)nn2)C1 [compound 143] | > 10000 nM | 10 to 50 nM |
| Cc1cc(N[C@@H]2C[C@@H](F)CN(C(C)C)C2)nnc1-c1ccc(C(F)(F)F)cc1 [compound 144] | 5000 to 10000 nM | 100 to 500 nM |
| Cc1cc(N[C@@H]2CCCN(C)C2)nnc1-c1ccc(Cl)c(F)c1 [compound 145] | > 10000 nM | 50 to 100 nM |
| CCN1C[C@H](F)C[C@@H](Nc2cc(C)c(-c3ccc(C(F)(F)F)cc3)nn2)C1 [compound 146] | 5000 to 10000 nM | ≤ 10 nM |
| Cc1cc(-c2ccc(Cl)c(F)c2)nnc1N[C@@H]1CCCN(C)C1 [compound 147] | 5000 to 10000 nM | > 1000 nM |
| CN1CCC[C@@H](Nc2nnc(-c3ccc(F)cc3)cc2C(F)(F)F)C1 [compound 148] | > 10000 nM | > 1000 nM |
| Cc1cc(-c2ccc(Cl)cc2F)nnc1N[C@@H]1CCCN(C)C1 [compound 149] | 5000 to 10000 nM | 100 to 500 nM |
| CCN1C[C@H](F)C[C@@H](Nc2cc(C)c(-c3ccc(F)cc3)nn2)C1 [compound 150] | > 10000 nM | > 1000 nM |
| CCN1C[C@H](F)C[C@@H](Nc2cc(C)c(-c3ccc(Cl)cc3)nn2)C1 [compound 151] | 1000 to 5000 nM | > 1000 nM |
| Cc1cc(N[C@@H]2C[C@@H](F)CN(C(C)C)C2)nnc1-c1ccc(Cl)cc1 [compound 152] | > 10000 nM | 10 to 50 nM |

| Compound | IC50 (IL-6) | IC50 (NLRP3 inflammasome) |
| --- | --- | --- |
| Cc1cc(N[C@@H]2CCCN(C)C2)nnc1-c1ccc(Cl)cc1F [compound 153] | 5000 to 10000 nM | > 1000 nM |
| Cc1cc(F)ccc1-c1cc(F)c(N[C@@H]2CCCN(C)C2)nn1 [compound 154] | > 10000 nM | 100 to 500 nM |
| CCN1CCC[C@@H](Nc2cc(C)c(-c3ccc(Cl)cc3)nn2)C1 [compound 155] | > 10000 nM | ≤ 10 nM |
| Cc1cc(N[C@@H]2CCCN(C(C)C)C2)nnc1-c1ccc(Cl)cc1 [compound 156] | > 10000 nM | ≤ 10 nM |
| Cc1cc(N[C@@H]2CCCN(C)C2)nnc1-c1ccc(C(F)F)cc1 [compound 157] | > 10000 nM | 10 to 50 nM |
| Cc1cc(C(F)(F)F)ccc1-c1cc(O)c(N[C@@H]2CCCN(C)C2)nn1 [compound 158] | 5000 to 10000 nM | 100 to 500 nM |
| Cc1cc(N[C@@H]2CCCN(C)C2)nnc1-c1ccccc1C(F)F [compound 159] | 5000 to 10000 nM | 500 to 1000 nM |
| Cc1cc(-c2ccccc2C(F)F)nnc1N[C@@H]1CCCN(C)C1 [compound 160] | 1000 to 5000 nM | 500 to 1000 nM |
| Cc1c(-c2ccc(N[C@@H]3CCCN(C)C3)nn2)ccc(C(F)(F)F)c1C [compound 161] | > 10000 nM | 100 to 500 nM |
| Cc1cc(-c2nnc(N[C@@H]3CCCN(C)C3)cc2C)ccc1Cl [compound 162] | > 10000 nM | 10 to 50 nM |
| Cc1cc(-c2cc(C)c(N[C@@H]3CCCN(C)C3)nn2)ccc1Cl [compound 163] | > 10000 nM | > 1000 nM |
| COc1cc(F)cc(C)c1-c1ccc(N[C@@H]2CCCN(C)C2)nn1 [compound 164] | > 10000 nM | > 1000 nM |
| Cc1cc(N[C@@H]2CCCN(C)C2)nnc1-c1ccc(C(F)(F)F)cc1C(F)F [compound 165] | > 10000 nM | ≤ 10 nM |
| Cc1cc(-c2ccc(C(F)(F)F)cc2C(F)F)nnc1N[C@@H]1CCCN(C)C1 [compound 166] | > 10000 nM | 10 to 50 nM |
| CCN(c1cc(C)c(-c2ccc(C(F)(F)F)cc2)nn1)[C@@H]1CCCN(C)C1 [compound 167] | > 10000 nM | 100 to 500 nM |
| Cc1cc(N[C@@H]2CCCN(C)C2)nnc1-c1ccc(Cl)cc1C#N [compound 168] | 5000 to 10000 nM | 10 to 50 nM |
| Cc1cc(N[C@@H]2CCCN(C)C2)nnc1-c1ccc(Cl)cc1C(F)(F)F [compound 169] | > 10000 nM | 10 to 50 nM |
| Cc1cc(-c2ccc(Cl)cc2C(F)(F)F)nnc1N[C@@H]1CCCN(C)C1 [compound 170] | > 10000 nM | 10 to 50 nM |
| Cc1cc(N[C@@H]2CCCN(C)C2)nnc1-c1ccc(Cl)cc1Cl [compound 171] | > 10000 nM | ≤ 10 nM |
| COc1cc(N[C@@H]2CCCN(C)C2)nnc1-c1ccc(C(F)(F)F)cc1C [compound 172] | > 10000 nM | > 1000 nM |
| Cc1cc(-c2ccc(Cl)cc2C#N)nnc1N[C@@H]1CCCN(C)C1 [compound 173] | > 10000 nM | > 1000 nM |
| Cc1cc(N[C@@H]2CCCN(C)C2)nnc1-c1ccc(Cl)cc1C(F)F [compound 174] | 5000 to 10000 nM | ≤ 10 nM |
